This is an account of results in patent publication US20240116892A1, “HETEROCYCLIC AMIDE AND UREA COMPOUNDS AS JAK2 INHIBITORS” (Ajax Therapeutics, Inc., priority 2022, published 2024).

In the assay the target is JAK2 (JH1 domain-catalytic, Y1007F, Y1008F) kinase (Homo sapiens (Human), UniProt O60674, Y1007F/Y1008F). Kind of assay: JAK2 JH1 Domain Binding Assay. The note with it: qPCR readout. An outline of the steps: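 Competitive binding format: test compound, DNA-tagged JAK2 JH1 (Y1007F/Y1008F; HEK293-expressed NFkB fusion) and ligand-coated magnetic beads incubated 1 h at room temperature. Kinase retained on beads released with 0.5 μmol/L non-biotinylated ligand, then measured by qPCR.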
Background: In qPCR the cycle at which signal appears reflects the starting amount.

By Kd is commonly meant the concentration at which binding is half-saturated. Read a high Kd as lower affinity.

Sequence of JAK2 (JH1 domain-catalytic, Y1007F, Y1008F) kinase (O60674 849-1124 Y1007F/Y1008F): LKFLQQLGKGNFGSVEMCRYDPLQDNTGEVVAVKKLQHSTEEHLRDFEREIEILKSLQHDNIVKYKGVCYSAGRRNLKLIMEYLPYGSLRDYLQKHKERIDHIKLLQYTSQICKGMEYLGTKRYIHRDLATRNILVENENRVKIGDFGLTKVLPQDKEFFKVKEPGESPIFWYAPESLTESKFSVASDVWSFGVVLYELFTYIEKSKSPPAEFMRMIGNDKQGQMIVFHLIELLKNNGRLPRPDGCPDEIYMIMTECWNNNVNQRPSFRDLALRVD

Regarding `CO[C@H]1CN(c2cnc3[nH]nc(N(C)C)c3c2)CC[C@@H]1N(C)C(=O)Nc1cc(C(F)(F)F)cn(C)c1=O` [Example I-115-b, 1-((3S,4S)-1-(3-(dimethylamino)-1H-pyrazolo[3,4-b]pyridin-5-yl)-3-methoxypiperidin-4-yl)-1-methyl-3-(1-methyl-2-oxo-5-(trifluoromethyl)-1,2-dihydropyridin-3-yl)urea], the Kd was 50 to 1000 nM.

`Cn1cc(C(F)(F)F)cc(NC(=O)C2(C3CCN(c4cnc5[nH]ccc5n4)CC3)CC2)c1=O` [Example I-85, 1-(1-(5H-pyrrolo[2,3-b]pyrazin-2-yl)piperidin-4-yl)-N-(1-methyl-2-oxo-5-(trifluoromethyl)-1,2-dihydropyridin-3-yl)cyclopropane-1-carboxamide] came in with a Kd of under 10 nM.

Take `C[C@H]1CN(C(=O)Nc2cc(C(F)(F)F)cn(C)c2=O)C2(CCN(c3cnc4[nH]cc(C#N)c4n3)CC2)C1` (single isomer, unassigned) [Example I-60-b]: the Kd fell in the range of 50 to 1000 nM.

As to `COc1c[nH]c2ncc([C@H]3CC[C@H](N(C)C(=O)Nc4cc(C(F)(F)F)cn(C)c4=O)CC3)nc12` [Example I-170, trans-1-(4-(7-methoxy-5H-pyrrolo[2,3-b]pyrazin-2-yl)cyclohexyl)-1-methyl-3-(1-methyl-2-oxo-5-(trifluoromethyl)-1,2-dihydropyridin-3-yl)urea], the Kd is under 10 nM.

On to `COc1c[nH]c2ncc(N3CC[C@H](N(C)C(=O)Nc4cc(C(F)(F)F)cn(C)c4=O)[C@H](F)C3)nc12` [Example I-151, 1-((3R,4S)-3-fluoro-1-(7-methoxy-5H-pyrrolo[2,3-b]pyrazin-2-yl)piperidin-4-yl)-1-methyl-3-(1-methyl-2-oxo-5-(trifluoromethyl)-1,2-dihydropyridin-3-yl)urea], for which the Kd is under 10 nM.

`COc1n[nH]c2ncc(N3CC[C@H](N(C)C(=O)Nc4cc(C(F)(F)F)cn(C)c4=O)[C@H](OC)C3)cc12` [Example I-106-b, 1-((3R,4S)-3-methoxy-1-(3-methoxy-1H-pyrazolo[3,4-b]pyridin-5-yl)piperidin-4-yl)-1-methyl-3-(1-methyl-2-oxo-5-(trifluoromethyl)-1,2-dihydropyridin-3-yl)urea] came in with a Kd of under 10 nM.

Compound `CN(C)C(=O)Nc1cnc(N2CCC(N(C)C(=O)Nc3cc(C(F)(F)F)cn(C)c3=O)CC2)cn1` [Example I-48, 1,1-dimethyl-3-(5-(4-(1-methyl-3-(1-methyl-2-oxo-5-(trifluoromethyl)-1,2-dihydropyridin-3-yl)ureido)piperidin-1-yl)pyrazin-2-yl)urea] showed a Kd of 10 to 50 nM.

The compound `CN(C(=O)Nc1cc(C(F)(F)F)cn(C)c1=O)[C@H]1CCN(c2cnc3[nH]cc(N4CCOCC4)c3n2)CC1(F)F` (single isomer, unassigned) [Example I-155-b] yielded a Kd of 10 to 50 nM.

Turning to `COc1n[nH]c2ncc(N3CC[C@@H](N(C)C(=O)Nc4cc(C(F)(F)F)cn(C)c4=O)[C@H](F)C3)cc12` [Example I-84-b, 1-((3R,4R)-3-fluoro-1-(3-methoxy-1H-pyrazolo[3,4-b]pyridin-5-yl)piperidin-4-yl)-1-methyl-3-(1-methyl-2-oxo-5-(trifluoromethyl)-1,2-dihydropyridin-3-yl)urea], the Kd was under 10 nM.

`CNc1n[nH]c2ncc(N3CC[C@H](N(C)C(=O)Nc4cc(C(F)(F)F)cn(C)c4=O)C(F)(F)C3)cc12` [Example I-125-b, (S)-1-(3,3-difluoro-1-(3-(methylamino)-1H-pyrazolo[3,4-b]pyridin-5-yl)piperidin-4-yl)-1-methyl-3-(1-methyl-2-oxo-5-(trifluoromethyl)-1,2-dihydropyridin-3-yl)urea] had a Kd of under 10 nM.

`CO[C@H]1CN(c2cnc3[nH]ncc3c2)CC[C@H]1N(C)C(=O)Nc1cc(C(F)(F)F)cn(C)c1=O` [Example I-88-a, 1-((3S,4R)-3-methoxy-1-(1H-pyrazolo[3,4-b]pyridin-5-yl)piperidin-4-yl)-1-methyl-3-(1-methyl-2-oxo-5-(trifluoromethyl)-1,2-dihydropyridin-3-yl)urea] displayed a Kd of under 10 nM.

Compound `CO[C@@H]1CN(c2cnc3[nH]cc(C)c3n2)CC[C@H]1N(C)C(=O)Nc1cc(C(F)(F)F)cn(C)c1=O` [Example I-118-a, 1-((3R,4R)-3-methoxy-1-(7-methyl-5H-pyrrolo[2,3-b]pyrazin-2-yl)piperidin-4-yl)-1-methyl-3-(1-methyl-2-oxo-5-(trifluoromethyl)-1,2-dihydropyridin-3-yl)urea] had a Kd of 10 to 50 nM.

Compound `COCc1cc2nc(N3CC[C@H](N(C)C(=O)Nc4cc(C(F)(F)F)cn(C)c4=O)C(F)(F)C3)cnc2[nH]1` [Example I-110-b, (S)-1-(3,3-difluoro-1-(6-(methoxymethyl)-5H-pyrrolo[2,3-b]pyrazin-2-yl)piperidin-4-yl)-1-methyl-3-(1-methyl-2-oxo-5-(trifluoromethyl)-1,2-dihydropyridin-3-yl)urea] gave a Kd of under 10 nM.

Regarding `C[C@@H]1CN(c2cnc3[nH]ncc3c2)CC[C@@H]1N(C)C(=O)Nc1cc(C(F)(F)F)cn(C)c1=O` [Example I-70-a, 1-methyl-1-((3R,4S)-3-methyl-1-(1H-pyrazolo[3,4-b]pyridin-5-yl)piperidin-4-yl)-3-(1-methyl-2-oxo-5-(trifluoromethyl)-1,2-dihydropyridin-3-yl)urea], the Kd is under 10 nM.

In turn, `COc1n[nH]c2ncc(N3CC[C@@H](N(C)C(=O)Nc4cc(C(F)(F)F)cn(C)c4=O)[C@@H](OC)C3)cc12` [Example I-106-a, 1-((3S,4R)-3-methoxy-1-(3-methoxy-1H-pyrazolo[3,4-b]pyridin-5-yl)piperidin-4-yl)-1-methyl-3-(1-methyl-2-oxo-5-(trifluoromethyl)-1,2-dihydropyridin-3-yl)urea] displayed a Kd of under 10 nM.

`Cn1cc(C(F)(F)F)cc(NC(=O)N2CCC23CCN(c2cnc4[nH]ccc4n2)CC3)c1=O` [Example I-67, N-(1-methyl-2-oxo-5-(trifluoromethyl)-1,2-dihydropyridin-3-yl)-7-(5H-pyrrolo[2,3-b]pyrazin-2-yl)-1,7-diazaspiro[3.5]nonane-1-carboxamide] returned a Kd of 50 to 1000 nM.

`CN(C(=O)Nc1cc(C(F)(F)F)cn(C)c1=O)[C@H]1CCN(c2cnc3[nH]ncc3c2)C[C@H]1F` (stereo in doubt) [Example I-62-a, 1-((3R,4S)-3-fluoro-1-(1H-pyrazolo[3,4-b]pyridin-5-yl)piperidin-4-yl)-1-methyl-3-(1-methyl-2-oxo-5-(trifluoromethyl)-1,2-dihydropyridin-3-yl)urea]: the Kd was under 10 nM.

`Cc1cc(NC(=O)CC2CCN(c3cnccn3)CC2)cc(C(F)(F)F)c1` [Example I-1, N-(3-methyl-5-(trifluoromethyl)phenyl)-2-(1-(pyrazin-2-yl)piperidin-4-yl)acetamide] gave a Kd of 1000 to 5000 nM.

Regarding `CN(C(=O)Nc1cc(C(F)(F)F)cn(C)c1=O)C12CC(c3cnc4[nH]nc(OC[C@H]5COCCO5)c4c3)(C1)C2` [Example I-158, (R)-1-(3-(3-((1,4-dioxan-2-yl)methoxy)-1H-pyrazolo[3,4-b]pyridin-5-yl)bicyclo[1.1.1]pentan-1-yl)-1-methyl-3-(1-methyl-2-oxo-5-(trifluoromethyl)-1,2-dihydropyridin-3-yl)urea], the Kd is under 10 nM.
